Measurements from ChEMBL document CHEMBL6178021, “Optimization of Tambjamines Active against Multiple Stages of Malaria Parasites” (J Med Chem, 2025).

Key:
[1] = tested on: Plasmodium falciparum; test: microbe, parasite or virus in culture; details: Dd2, 72 h
Description: Antiplasmodial activity against asexual blood-stage Plasmodium falciparum Dd2 using 2% haematocrit and 0.2% parasitemia assessed as reduction in fluorescence measured after 72 hrs by Malaria SYBR Green I-based Fluorescence (MSF) assay

[2] = tested on: Plasmodium falciparum; test: Antiplasmodial activity against asexual blood-stage Plasmodium falciparum Tm90-C2B using 2% haematocrit and 0.2% parasitemia assessed as reduction in fluorescence measured after 72 hrs by Malaria SYBR Green I-based Fluorescence (MSF) assay; format: functional, organism-based
[3] = tested on: Plasmodium falciparum; test: microbe, parasite or virus in culture; details: D6, 72 h
Description: Antiplasmodial activity against asexual blood-stage Plasmodium falciparum D6 using 2% haematocrit and 0.2% parasitemia assessed as reduction in fluorescence measured after 72 hrs by Malaria SYBR Green I-based Fluorescence (MSF) assay

SMILES	IC50 [1] [nM]	IC50 [2] [nM]	IC50 [3] [nM]
CCC1=C(CC)/C(=C/NC2CCCCC2)N=C1c1ccccc1OCCN(CC)CC	757	1060	> 2500
CCc1c(C(=O)NC23C[C@H]4C[C@@H](C2)C[C@@H](C3)C4)[nH]c(-c2ccc[nH]2)c1CC	> 2500	> 2500	> 2500
C(/NC1CCCCC1)=C1/N=C(c2ccc[nH]2)C(Oc2ccccc2)=C1Oc1ccccc1	> 2500	> 2500	> 2500
CCC1=C(CC)/C(=C/NC2CCCCC2)N=C1c1ccn[nH]1	> 2500	> 2500	> 2500
CCC1=C(CC)/C(=C/NC2CCCCCCC2)N=C1c1ccn[nH]1	> 2500	> 2500	> 2500
CCC1=C(CC)/C(=C/NC2CCCCCC2)N=C1c1ccn[nH]1	> 2500	> 2500	> 2500
CCC1=C(CC)/C(=C/NC2CCCCC2)N=C1c1ccccc1OC	> 2500	> 2500	> 2500
CCC1=C(CC)/C(=C/NC2CCCCCCC2)N=C1c1ccc(C#N)[nH]1	> 2500	> 2500	> 2500
CCC1=C(CC)/C(=C/NC2CCCCC2)N=C1c1cc2cc(OC)ccc2[nH]1	> 2500	2290	1080
CCC1=C(CC)/C(=C/NC2CCCCC2)N=C1c1ccccc1F	> 2500	> 2500	> 2500
CCC1=C(CC)/C(=C/NC2CCCCC2)N=C1c1ccccc1O	> 2500	> 2500	> 2500
CCC1=C(CC)/C(=C/NC2CCCCC2)N=C1c1cc2ccccc2[nH]1	> 2500	> 2500	> 2500
C(/NC1CCCCCC1)=C1/N=C(c2ccc[nH]2)C(Oc2ccccc2)=C1Oc1ccccc1	> 2500	> 2500	> 2500
COc1ccc(OC2=C(Oc3ccc(OC)cc3)/C(=C/NC3CCCCCC3)N=C2c2ccc[nH]2)cc1	1740	2170	1490
COc1ccc(C2=C(c3ccc(OC)cc3)/C(=C/NC3CCCCC3)N=C2c2ccc[nH]2)cc1	343	187	
CCc1ccc(-c2[nH]c(C(=O)NC3CCCCC3)c(CC)c2CC)[nH]1	> 2500	> 2500	> 2500
C(/NC1CCCCCC1)=C1/N=C(c2ccc[nH]2)C(c2ccccc2)=C1c1ccccc1	1000	2110	
CCC1=C(CC)/C(=C/NC2CCCCC2)N=C1c1ccccc1OCCN(C)C	1380	> 2500	> 2500
CCc1c(C(=O)NC2CCCCC2)[nH]c(-c2ccc(C)[nH]2)c1CC	> 2500	> 2500	> 2500
CCC1=C(CC)/C(=C/NC23C[C@H]4C[C@@H](C2)C[C@@H](C3)C4)N=C1c1ccc(C#N)[nH]1	> 2500	818	397
CCC1=C(CC)/C(=C/NC23C[C@H]4C[C@@H](C2)C[C@@H](C3)C4)N=C1c1ccn[nH]1	> 2500	> 2500	> 2500
COc1ccc(OC2=C(Oc3ccc(OC)cc3)/C(=C/NC34C[C@H]5C[C@@H](C3)C[C@@H](C4)C5)N=C2c2ccc[nH]2)cc1	113	184	228
COc1ccc(OC2=C(Oc3ccc(OC)cc3)/C(=C/NC3CCCCC3)N=C2c2ccc[nH]2)cc1	1470	1650	1220
CCC1=C(CC)/C(=C/NC23C[C@H]4C[C@@H](C2)C[C@@H](C3)C4)N=C1c1ccccc1F	> 2500	> 2500	> 2500
COc1ccc(C2=C(c3ccc(OC)cc3)/C(=C/NC3CCCCCC3)N=C2c2ccc[nH]2)cc1	330	131	
CCc1c(CNC23CC4CC(CC(C4)C2)C3)[nH]c(-c2ccc[nH]2)c1CC	753	912	
